Results on 2 compounds are retold here after patent US11633383B2, “Dosage principle for drugs useful for treating neoplastic diseases” (Basilea Pharmaceutica International AG, priority 2017, dated 2023).

Data set [1] in a line: Plasma concentrations of BAL27862 (Cmax, AUC) in patients, 2-hour intravenous infusion study. It counts as in vivo, human. The following applies: mean. The protocol: (§1) In one clinical trial BAL101553 (dihydrochloride salt) was given as a 2-hour infusion on days 1, 8, and 15 of each 28-day cycle (comparative Example).
(§2) BAL101553 (dihydrochloride salt) for intravenous administration is prepared by reconstitution of lyophilized BAL101553 (dihydrochloride salt) with saline solution or Ringer lactate solution, prior to further dilution with Ringer lactate for intravenous infusion to the patient. The 48-hour infusion is administered via an elastomeric pump (Baxter) using an infusion volume of 120 ml or 240 ml.
2-hour intravenous infusion study: on day 1 of cycle 1 blood samples were collected at pre-dose and where clinically feasible 0.5, 1, 2, 3, 4, 6, 8 and 24 hours after dosing.
(§3) Venous blood samples were collected into chilled 2 ml plastic tubes containing K2-EDTA as an anticoagulant mixed with 20 μl 2M citric acid and kept on ice for 15 minutes. Approximately 1.0 ml plasma was prepared by centrifugation at 1′500×g for 10-15 minutes at 4° C., transferred into new vials and stored at −80° C. until analysis. Plasma concentrations of BAL27862 were determined with a fully validated LC-MS/MS method:
(§4) 50 μl of acetonitrile was added to 25 μl plasma containing stable labelled internal standards (IS). After vortexing, the samples were centrifuged for 10 minutes at 50′000×g at 8° C. and 50 μl of the supernatant was transferred to an empty auto-sampler vial. The extract was separated by liquid chromatography, performed using water (0.1% formic acid) as mobile phase A and acetonitrile (0.1% formic acid) as mobile phase B. The column used was a YMC Hydroshere C18, 2.1×33 mm, 3 μm (YMC Co, Kyoto, Japan). The injection volume was set to 2 μL (full loop).
(§5) Detection was carried out using a triple-stage quadrupole MS/MS (TSQ Vantage, Thermo Fisher
(§6) Scientific, San Jose, Calif., USA) in the selected reaction monitoring mode.
(§7) The following calibration range was applied:
(§8) 1 to 1000 ng/ml for BAL27862 in human plasma ([…], citric acid)
(§9) Calculation of Pharmacokinetic Parameters (exposure [Area Under the Curve—AUC] and peak [Cmax] drug levels) for Human Samples:
(§10) AUC and Cmax of BAL27862 were calculated by non-compartmental analysis (NCA) using Phoenix WinNonLin 7.0 software from Certara.

A short description of data set [2]: Plasma concentrations of BAL27862 (Cmax, AUC) in patients, 48-hour intravenous infusion study. Type of data set: in vivo, human. As to conditions: for AUClast / Cmax: BAL27862 in plasma; for AUC: plasma, BAL27862, compared as weekly exposure. The protocol: (§11) In another clinical trial BAL101553 (dihydrochloride salt) was given as a 48-hour infusion on days 1, 8 and 15 of each 28 day cycle.
as §2
48-hour intravenous infusion study: on day 1 of cycle 1 blood samples were collected at pre-dose and where clinically feasible 0.5, 1, 2, 4, 8, 24, 30, 48, 52, 54, 72, and 168 hours after dosing.
as §3, §4, §5, §6, §7, §8, §9, §10

Data set [3] is described as follows: Plasma concentrations of BAL27862 (Cmax, AUC) in patients, daily oral administration study. It counts as in vivo. As to conditions: human, BAL101553 dihydrochloride daily oral, N=7; for AUC: plasma, BAL27862, compared as weekly exposure; for Cmax: BAL27862 in plasma. Here is the method: (§12) In another clinical trial BAL101553 (dihydrochloride salt) was given as a daily oral administration in treatment cycles consisting of 28 days of continuous, daily administration to patients in a fasted state (comparative Example).
(§13) BAL101553 (dihydrochloride salt) for oral administration is prepared as a HPMC capsules containing 1 mg active ingredient, 98 mg of mannitol and 1 mg magnesium stearate, or 5 mg active ingredient, 94 mg mannitol and 1 mg magnesium stearate.
Daily oral administration study: on day 1 of cycle 1 blood samples were collected at pre-dose and where clinically feasible 0.5, 1, 2, 3, 4, 6, 8 and 24 hours after intake of study medication.
as §3, §4, §5, §6, §7, §8, §9, §10

In data set [4] the test system is tumour. Put plainly: Clinical trials of BAL101553: tumour response. Type of data set: in vivo, human.
From the text: as §11, §12

Data set [5] in a line: Blood pressure measurements in patients treated with BAL101553. It counts as in vivo, human. As to conditions: cycle 1 day 1. Here is the method:
On day 1 of cycle 1 of the 2-hour and 48-hour intravenous infusion studies systolic and diastolic blood pressures were measured using a calibrated, automated blood pressure device at various time points, i.e. prior to the first administration of study drug and then at least hourly for the first 4 hours after start of dosing.

The conditions of data set [6]: cited from earlier work.
The conditions of data set [7]: cited from earlier work. This is another data set of the same source.
A short description of data set [8]: Clinical trials of BAL101553: maximum tolerated dose and adverse drug reactions. Type of data set: in vivo, human.
From the text: as §1, §11, §12, §2, §13

Setting [9] is: BAL101553 dihydrochloride 45 mg/m^2, 2 hours infusion, N=8, cycle 1 day 1.
The mark [10] stands for this setting: BAL101553 dihydrochloride 60 mg/m^2, 2 hours infusion, N=21, cycle 1 day 1.
Where [11] appears, read: BAL101553 dihydrochloride 45 mg/m^2, 48 hours infusion, mean, N=3, cycle 1 day 1.
Setting [12] is: BAL101553 dihydrochloride 70 mg/m^2, 48 hours infusion, mean, N=4, cycle 1 day 1.
The mark [13] stands for this setting: BAL101553 dihydrochloride 90 mg/m^2, 48 hours infusion, mean, N=4, cycle 1 day 1.
The mark [14] stands for this setting: 2-hour infusion on study days 1, 8 and 15, q28 days, 2016 ASCO poster.

For `N#CCCNc1nonc1-c1nc2ccccc2n1CC(=O)c1ccc(N)cc1` [BAL27862, 3-(4-{1-[2-(4-Amino-phenyl)-2-oxo-ethyl]-1H-benzoimidazol-2-yl}-furazan-3-ylamino)-propionitrile], the AUClast is reported as 4340 h*ng/m in data set [1] (setting [9]); 6040 h*ng/m in data set [1] (setting [10]); 3830 h*ng/m in data set [2] (setting [11]); 9030 h*ng/m in data set [2] (setting [12]); 12000 h*ng/m in data set [2] (setting [13]). For the same compound, the Cmax amounted to 356 ng/m in data set [1] (setting [9]); 498 ng/m in data set [1] (setting [10]); 77.7 ng/m in data set [2] (setting [11]); 152 ng/m in data set [2] (setting [12]); 238 ng/m in data set [2] (setting [13]); 148 ng/mL in data set [2] (human, intravenous, BAL101553 dihydrochloride 48-hour infusion, 70 mg/m^2, N=9, read-out: Cmax (mean, ng/ml)). The Cmax stood at 238 ng/mL in data set [2] (human, intravenous, BAL101553 dihydrochloride 48-hour infusion, 90 mg/m^2, N=4, read-out: Cmax (mean, ng/ml)); 131 ng/mL in data set [3] (16 mg); 134 ng/mL in data set [3] (20 mg). For the same compound, the “variability of pharmacokinetic exposure (AUC)” value in data set [2] (48-hour dose regimen versus daily oral regimen) is given as “lower variability”. The AUC in data set [2] (human, intravenous, BAL101553 dihydrochloride 48-hour infusion, 70 mg/m^2, N=9) amounted to 8580 ng·h/mL; in data set [2] (human, intravenous, BAL101553 dihydrochloride 48-hour infusion, 90 mg/m^2, N=4), 13500 ng·h/mL; in data set [3] (16 mg) it was 8400 ng·h/mL; in data set [3] (20 mg), 12200 ng·h/mL.
Take `N#CCCNc1nonc1-c1nc2ccccc2n1CC(=O)c1ccc(NC(=O)[C@@H](N)CCCCN)cc1` [BAL101553, (S)-2,6-Diamino-hexanoic acid [4-(2-{2-[4-(2-cyano-ethylamino)-furazan-3-yl]-benzoimidazol-1-yl}-acetyl)-phenyl]-amide]: the tumour response entry in data set [4] (48-hour infusion regimen, MTD dose (70 mg/m^2)) is reported as “partial tumour response in a patient”. The objective responses entry in data set [4] (daily oral dose regimen, any dose) is “no objective responses were observed”. Also, the “change from baseline in systolic and diastolic blood pressure” value in data set [5] (infused over 48 hours, 45 or 70 mg/m^2) is “neutral blood pressure profile or a minor average change from baseline”; in data set [5] (infusion duration of 2 hours, 45 or 60 mg/m^2), “distinct changes from baseline”. Besides, in data set [6] (setting [14]), the myocardial ischemia result was “asymptomatic myocardial ischemia”. For the same compound, in data set [6] (setting [14]), the “recommended phase 2 dose” value was 30 mg/m^2. Besides, the vascular effects entry in data set [6] (2-hour infusion, related to peak drug concentration (Cmax), 2016 ASCO poster) is listed as “dose-dependent vascular effects that were dose-limiting”. Also, the MTD in data set [6] (2-hour intravenous administration, phase I escalation study of WO2015/173341) is recorded as 60 mg/m^2. Also, the water solubility result in data set [7] was “highly water-soluble”. The “troponin elevation indicative of myocardial damage” value is “Three patients” in data set [8] (45 mg/m^2 or 60 mg/m^2, 2-hour infusion) and “not observed” in data set [8] (45 mg/m^2 or 70 mg/m^2, 48-hour infusion). The “Grade 4 hyponatremia” value in data set [8] (90 mg/m^2 (supra-MTD), 48-hour infusion regimen) is listed as “no observation of Grade 4 hyponatremia”. The “maximum tolerated dose (MTD)” value was found to be 70 mg/m^2 in data set [8] (48-hour infusion on days 1, 8 and 15 of each 28 day cycle); 16 mg/day in data set [8] (daily oral administration, 28-day cycles, fasted state). Also, the “Serious Grade 4 adverse drug reactions” value in data set [8] (48-hour infusion, 70 mg/m^2, N=9) is on record as “None”; in data set [8] (48-hour infusion, 90 mg/m^2, N=4), “None”; in data set [8] (daily oral, 16 mg, N=7), “None”; in data set [8] (daily oral, 20 mg, N=7), 2 patients with. Also, in data set [8] (daily oral dose of 20 mg/day (supra-MTD)), the “serious Grade 4 hyponatremia” value was 2 patients.
